{
  "source": "patent US20070134744A1",
  "about": "“Epothilone resistant cell lines” (priority 2000, published 2007)",
  "key": {"EA40 cells": {"system": "EA40 cells", "test": "MTS growth inhibition assay", "format": "cell-based", "conditions": "EA40 cells, MTS, 72 hours drug; Table 1", "description": "Growth inhibition may be analyzed using conventional methods, for example a MTS assay (PROMEGA, Wis.) may be used. In this assay approximately 4000 cells per well are seeded in 96 well plates in MEM supplemented with 10% fetal calf serum and incubated at 37° C. in 5.0% CO2. After 24 hours, dilutions of drug (concentration range used is between 1 nM and 1000 nM) are added and cells are allowed to incubate with drug for an additional 72 hours. The MTS reagent mixed with PMS (MTS:PMS 20:1 according to manufacturer's instructions) is then added and absorbance quantitated using a Thermomax microplate reader system according to conventional methods (Molecular Devices, Sunnyvale, Calif.). […] Six assays per drug per plate are performed. […]\nAs such, epothilone resistant cells would have some degree of cross-resistance to other P-gp substrates that could be reversed by P-gp inhibitors. To investigate this possibility, the cytotoxicity of the P-gp substrates, vincristine, doxorubicine and vinblastine is determined against epothilone A resistant cells using the MTS assay. […] When EA20 and resistant MDA/T0.3 cells are incubated with TAXOL® or epothilone A in the presence of [3′-Desoxy-3′-oxo-MeBmt]^1-[Val]^2-Ciclosporin (PSC-833; a P-gp inhibitor which is disclosed in U.S. Pat. No. 5,525,590), the resistance of MDA/T0.3 cells to TAXOL® is reversed but no effect on the resistance of EA20 to epothilone A is observed."}, "[1]": {"molecular_target": "T1, tubulin in 298/D4/40 cell lysates (Homo sapiens, UniProt P07437, T274P)", "T1 construct": "endogenous in cells; host or cells: 297/C5/0 and 298/D4/40 sublines of KB-31 (intact cells or hypotonic lysates)", "T1 sequence (P07437 whole entry T274P)": "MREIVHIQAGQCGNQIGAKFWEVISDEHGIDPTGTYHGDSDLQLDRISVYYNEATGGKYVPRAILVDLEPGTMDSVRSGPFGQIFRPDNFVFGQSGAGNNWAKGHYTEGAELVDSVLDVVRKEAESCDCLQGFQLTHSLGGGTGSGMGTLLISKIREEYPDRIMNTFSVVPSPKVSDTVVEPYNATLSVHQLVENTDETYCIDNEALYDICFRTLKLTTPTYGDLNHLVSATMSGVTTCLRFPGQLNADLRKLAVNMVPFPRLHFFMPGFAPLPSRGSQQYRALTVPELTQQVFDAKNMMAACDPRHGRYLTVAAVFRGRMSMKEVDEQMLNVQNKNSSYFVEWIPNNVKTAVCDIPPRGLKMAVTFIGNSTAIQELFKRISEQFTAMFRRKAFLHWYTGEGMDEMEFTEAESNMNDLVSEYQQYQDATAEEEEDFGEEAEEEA", "T1 sequence (P68363 whole entry partner)": "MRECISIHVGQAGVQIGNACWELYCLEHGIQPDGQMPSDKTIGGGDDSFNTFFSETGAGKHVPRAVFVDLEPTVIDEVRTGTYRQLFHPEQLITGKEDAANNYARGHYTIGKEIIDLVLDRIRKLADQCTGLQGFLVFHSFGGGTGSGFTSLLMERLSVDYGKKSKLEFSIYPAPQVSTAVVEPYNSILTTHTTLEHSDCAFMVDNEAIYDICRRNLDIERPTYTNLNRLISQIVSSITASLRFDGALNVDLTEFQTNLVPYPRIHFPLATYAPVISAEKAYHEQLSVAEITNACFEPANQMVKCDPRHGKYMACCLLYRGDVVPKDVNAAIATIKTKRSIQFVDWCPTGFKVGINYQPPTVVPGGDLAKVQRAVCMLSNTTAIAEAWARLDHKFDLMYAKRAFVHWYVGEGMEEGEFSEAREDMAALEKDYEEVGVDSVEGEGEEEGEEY", "test": "Cell-free tubulin polymerization assay", "format": "biochemical", "conditions": "298/D4/40 lysates, 5 min 37° C., 0-100 μM", "description": "(§1) For the assessment of drug effects on the ratio between unpolymerized and polymerized tubulin in a cell-free system, cells are lysed at the time of drug addition and processed as follows. Cells are seeded and incubated for 18-24 hrs as described above. One plate at a time is then transferred to a dimmed tissue-culture hood and cells are washed twice with 1 ml of room temperature PBS/O. After careful removal of remaining PBS/O, 200 μl of room-temperature HLB/A containing test substances at the desired concentration is added to the cells. Final vehicle concentration is 1%. The plates are wrapped in aluminum foil and incubated for 5 min at 37° C. Lysates are then transferred to eppendorf tubes, vortexed for 5 seconds, followed by centrifugation for 30 minutes at room-temperature in a table-top centrifuge at 12′000×g. Further processing of the samples is performed as described above.\n(§2) However, it was not clear from this experiment whether the decrease in epothilone A-mediated tubulin polymerization is due to decreased drug uptake or a genuine defect in tubulin functionality. To address this question, cells are lysed before incubation with epothilone A. Specifically, KB-31, 297/C5/0 and 298/D4/40 cells (2×10^5) are separately seeded in 6-well plates and allowed to adhere for 24 hrs. Cells are then lysed in hypotonic buffer containing 0, 1, 10 or 100 μM epothilone A. Vehicle (DMSO) concentration was 1%. Following incubation for 5 min at 37° C., samples are centrifuged to separate soluble from polymerized tubulin and the levels of unpolymerized tubulin is assessed by Western blotting as described above."}, "[2]": {"molecular_target": "T2, tubulin in KB-31 cell lysates (Homo sapiens, UniProt P07437)", "T2 construct": "decrease in the unpolymerized pool of tubulin in KB-31 cell lysates; endogenous in cells; host or cells: KB-31 human epidermoid carcinoma cells (intact cells or hypotonic lysates)", "T2 sequence (P68363 whole entry)": "as the sequence (P68363 whole entry partner) above", "T2 sequence (P07437 whole entry)": "as the sequence (P07437 whole entry T274P) above, with P274T counted along it", "test": "Cell-free tubulin polymerization assay", "format": "biochemical", "conditions": "KB-31 lysates, 5 min 37° C., 0-100 μM", "description": "as §1, §2"}},
  "data": [
    {"smiles": "C/C(=C\\c1csc(C)n1)[C@@H]1C[C@@H]2O[C@@H]2CCC[C@H](C)[C@H](O)[C@@H](C)C(=O)C(C)(C)[C@@H](O)CC(=O)O1", "note": "[Epothilone A, epothilone A]", "values": [
      {"measurement": "IC50", "setting": "EA40 cells", "result": "36 ± 2", "unit": "nM"},
      {"measurement": "changes in unpolymerized tubulin in cell lysates", "setting": "[1]", "result": "completely refractory"},
      {"measurement": "unpolymerized tubulin in cell lysates", "setting": "[2]", "result": "dose-dependent decrease in the unpolymerized pool of tubulin"}
    ]}
  ]
}
